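Each compound was tested at five concentrations against cells in 96-well plates for 48 hours. GI50: concentration for 50% inhibition of growth.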 Calls of active or inactive are those of the source. Cut-off read from the data, not from the text of the source: active = GI50 up to about 1.1 µM and inactive = higher.
Columns and labels:
Assay in all cases: DTP human tumour cell line panel, 48 h
Malme-3M = system: Malme-3M
786-0 = system: 786-0
K562 = system: K562
IGROV-1 = system: IGROV-1
RXF 393 = system: RXF 393
SK-MEL-5 = system: SK-MEL-5
HT-29 = system: HT-29
NCI/ADR-RES = system: NCI/ADR-RES
RPMI-8226 = system: RPMI-8226
HCC 2998 = system: HCC 2998
ACHN = system: ACHN
HOP-92 = system: HOP-92
SF-295 = system: SF-295
UACC-62 = system: UACC-62
CAKI-1 = system: CAKI-1
MDA-N = system: MDA-N
TK-10 = system: TK-10
A549 = system: A549
SK-MEL-2 = system: SK-MEL-2
NCI-H23 = system: NCI-H23

Row | SMILES | GI50 (Malme-3M) | GI50 (786-0) | GI50 (K562) | GI50 (IGROV-1) | GI50 (RXF 393) | GI50 (SK-MEL-5) | GI50 (HT-29) | GI50 (NCI/ADR-RES) | GI50 (RPMI-8226) | GI50 (HCC 2998) | GI50 (ACHN) | GI50 (HOP-92) | GI50 (SF-295) | GI50 (UACC-62) | GI50 (CAKI-1) | GI50 (MDA-N) | GI50 (TK-10) | GI50 (A549) | GI50 (SK-MEL-2) | GI50 (NCI-H23)
1 | COC(=O)/C(C#N)=C1\NC(=O)CC(c2ccccc2)C1C#N (stereo not given) | > 100 µM (inactive) | > 100 µM (inactive) | > 100 µM (inactive) | > 100 µM (inactive) | > 100 µM (inactive) | > 100 µM (inactive) | > 100 µM (inactive) | > 100 µM (inactive) | > 100 µM (inactive) | > 100 µM (inactive) | > 100 µM (inactive) | 63.5 µM (inactive) | > 100 µM (inactive) | > 100 µM (inactive) | > 100 µM (inactive) | > 100 µM (inactive) | > 100 µM (inactive) | > 100 µM (inactive) | > 100 µM (inactive) | 
2 | NNC(=O)CSc1nnc(CCCCCCCCc2nnc(SCC(=O)NN)o2)o1 | > 100 µM (inactive) | > 100 µM (inactive) | > 100 µM (inactive) | > 100 µM (inactive) | > 100 µM (inactive) | > 100 µM (inactive) | > 100 µM (inactive) | > 100 µM (inactive) | > 100 µM (inactive) | > 100 µM (inactive) | > 100 µM (inactive) | > 100 µM (inactive) | > 100 µM (inactive) | > 100 µM (inactive) | > 100 µM (inactive) | > 100 µM (inactive) | > 100 µM (inactive) | > 100 µM (inactive) | > 100 µM (inactive) | > 100 µM (inactive)
3 | Cc1cc(Cl)ccc1NC(=O)/C(Cc1nc2ccc(C(=O)c3ccccc3)cc2nc1O)=N/NC(=O)c1ccncc1 | > 100 µM (inactive) | > 100 µM (inactive) | 63.7 µM (inactive) | > 100 µM (inactive) | > 100 µM (inactive) | 92 µM (inactive) | > 100 µM (inactive) | > 100 µM (inactive) | > 100 µM (inactive) | > 100 µM (inactive) | > 100 µM (inactive) | > 100 µM (inactive) | > 100 µM (inactive) | 97.3 µM (inactive) | > 100 µM (inactive) | 97.3 µM (inactive) | > 100 µM (inactive) | > 100 µM (inactive) | > 100 µM (inactive) | > 100 µM (inactive)
4 | c1ccc(C(=NNc2cnc3ccccc3n2)c2ccccn2)cc1 | 0.532 µM (active) | 1.38 µM (inactive) | 1.2 µM (inactive) | 1.75 µM (inactive) | 7.59 µM (inactive) | 1.42 µM (inactive) | 0.048 µM (active) | 0.494 µM (active) | 2.02 µM (inactive) | 4.41 µM (inactive) | 0.405 µM (active) | 5.6 µM (inactive) | 2.93 µM (inactive) | 3 µM (inactive) | 0.382 µM (active) | 9.64 µM (inactive) |  | 3.15 µM (inactive) | 9.77 µM (inactive) | 2.61 µM (inactive)
5 | CCN1C/C(=C\c2ccc(Cl)cc2)c2[nH]c(=O)c(C#N)c(-c3ccc(Cl)cc3)c2C1 | > 100 µM (inactive) | > 100 µM (inactive) | > 100 µM (inactive) | > 100 µM (inactive) | > 100 µM (inactive) | > 100 µM (inactive) | > 100 µM (inactive) | > 100 µM (inactive) | > 100 µM (inactive) | > 100 µM (inactive) | > 100 µM (inactive) | > 100 µM (inactive) |  | > 100 µM (inactive) |  | > 100 µM (inactive) | > 100 µM (inactive) | > 100 µM (inactive) | > 100 µM (inactive) | > 100 µM (inactive)
6 | Cc1cc(S(=O)(=O)N/C(=C(\C#N)C(=O)c2ccccc2)[n+]2ccc(N(C)C)cc2)c([S-])cc1Cl | 20.9 µM (inactive) | > 100 µM (inactive) | > 100 µM (inactive) | 88.3 µM (inactive) | > 100 µM (inactive) | > 100 µM (inactive) | > 100 µM (inactive) | > 100 µM (inactive) | > 100 µM (inactive) |  | > 100 µM (inactive) | 0.33 µM (active) | > 100 µM (inactive) | > 100 µM (inactive) | > 100 µM (inactive) | > 100 µM (inactive) | 53.6 µM (inactive) | > 100 µM (inactive) | 83 µM (inactive) | > 100 µM (inactive)
7 | COc1ccccc1OCC(=N/NC(=O)c1ccncc1)/N=C/c1cccnc1 | > 100 µM (inactive) | > 100 µM (inactive) | > 100 µM (inactive) | > 100 µM (inactive) | > 100 µM (inactive) |  | > 100 µM (inactive) | > 100 µM (inactive) | > 100 µM (inactive) | > 100 µM (inactive) | > 100 µM (inactive) | > 100 µM (inactive) | > 100 µM (inactive) | > 100 µM (inactive) | > 100 µM (inactive) | > 100 µM (inactive) | > 100 µM (inactive) | > 100 µM (inactive) | > 100 µM (inactive) | > 100 µM (inactive)
8 | CN(C)NC(=S)Nc1ccccc1Br | > 100 µM (inactive) | > 100 µM (inactive) | > 100 µM (inactive) | > 100 µM (inactive) | > 100 µM (inactive) | > 100 µM (inactive) | > 100 µM (inactive) | > 100 µM (inactive) | > 100 µM (inactive) |  | > 100 µM (inactive) | > 100 µM (inactive) | > 100 µM (inactive) | > 100 µM (inactive) | > 100 µM (inactive) | > 100 µM (inactive) | > 100 µM (inactive) | > 100 µM (inactive) | > 100 µM (inactive) | > 100 µM (inactive)
9 | CC(=O)N1N=C(N)CC1=O | > 100 µM (inactive) | > 100 µM (inactive) | > 100 µM (inactive) | > 100 µM (inactive) | > 100 µM (inactive) | > 100 µM (inactive) | > 100 µM (inactive) | > 100 µM (inactive) |  | > 100 µM (inactive) | > 100 µM (inactive) | > 100 µM (inactive) | > 100 µM (inactive) | > 100 µM (inactive) | > 100 µM (inactive) | > 100 µM (inactive) | > 100 µM (inactive) | > 100 µM (inactive) | > 100 µM (inactive) | > 100 µM (inactive)
10 | BrCc1ccc(CBr)c2c1-c1c(CBr)ccc3ccc(CBr)c-2c13 | > 100 µM (inactive) | > 100 µM (inactive) | 99.1 µM (inactive) | > 100 µM (inactive) |  |  | > 100 µM (inactive) | > 100 µM (inactive) | 95.7 µM (inactive) | > 100 µM (inactive) | > 100 µM (inactive) | > 100 µM (inactive) | > 100 µM (inactive) | > 100 µM (inactive) |  | > 100 µM (inactive) | > 100 µM (inactive) | > 100 µM (inactive) | > 100 µM (inactive) | 
11 | CC(NP(=O)(c1ccccc1)c1ccccc1)c1ccccc1 (stereo not given) | > 100 µM (inactive) | > 100 µM (inactive) | > 100 µM (inactive) | > 100 µM (inactive) | > 100 µM (inactive) | > 100 µM (inactive) | > 100 µM (inactive) | > 100 µM (inactive) | > 100 µM (inactive) | > 100 µM (inactive) | > 100 µM (inactive) | > 100 µM (inactive) | > 100 µM (inactive) | > 100 µM (inactive) | > 100 µM (inactive) | > 100 µM (inactive) | > 100 µM (inactive) | > 100 µM (inactive) |  | > 100 µM (inactive)
12 | CC(=O)c1cccc(NC(=O)/C(=N\NC(=S)NN)C2C(=O)Nc3ccccc3[S+]2[O-])c1 (stereo not given) | > 100 µM (inactive) | > 100 µM (inactive) | > 100 µM (inactive) | > 100 µM (inactive) | > 100 µM (inactive) | > 100 µM (inactive) | > 100 µM (inactive) | > 100 µM (inactive) | > 100 µM (inactive) |  | > 100 µM (inactive) | 83.8 µM (inactive) | > 100 µM (inactive) | > 100 µM (inactive) | > 100 µM (inactive) | > 100 µM (inactive) | > 100 µM (inactive) | > 100 µM (inactive) | > 100 µM (inactive) | > 100 µM (inactive)
13 | CCNCCCNc1c2ccccc2nc2ccccc12 | 0.406 µM (active) | 0.552 µM (active) | 0.329 µM (active) | 0.48 µM (active) | 0.568 µM (active) | 0.375 µM (active) | 0.219 µM (active) | 0.916 µM (active) |  | 0.239 µM (active) | 0.136 µM (active) | 0.469 µM (active) | 0.498 µM (active) | 0.387 µM (active) | 0.334 µM (active) | 0.356 µM (active) | 0.571 µM (active) | 0.64 µM (active) | 0.518 µM (active) | 0.446 µM (active)
14 | CCCCC(=O)Nc1ccc2cc(C(=O)OC)c(ON3C(=O)c4ccccc4C3=O)nc2n1 | 17.9 µM (inactive) | 17 µM (inactive) | 33.2 µM (inactive) | 16.3 µM (inactive) | 20.5 µM (inactive) | 63.8 µM (inactive) |  | 32.6 µM (inactive) | 89.9 µM (inactive) | 22.6 µM (inactive) | 28.1 µM (inactive) | 26.4 µM (inactive) | 33.8 µM (inactive) |  | 22.2 µM (inactive) | 22.3 µM (inactive) | 14.6 µM (inactive) | 27.2 µM (inactive) | 37.5 µM (inactive) | 44.1 µM (inactive)
15 | O=C1NC(c2c(Cl)cccc2Cl)Nc2ccccc21 (stereo not given) | 24.8 µM (inactive) | 54.3 µM (inactive) |  | 21.2 µM (inactive) | 70 µM (inactive) | 27 µM (inactive) | 28.1 µM (inactive) | 21.8 µM (inactive) | 50.5 µM (inactive) |  | > 100 µM (inactive) | 25.4 µM (inactive) | 47.3 µM (inactive) | 37 µM (inactive) | 18.5 µM (inactive) | 21.5 µM (inactive) | > 100 µM (inactive) | 54.6 µM (inactive) | 82.2 µM (inactive) | 
